Molecules are shown by their SMILES. Read-outs that look alike come from different tables or passages of the source. Some results are limits rather than exact numbers.

For one assay, the target named is CDK2/CycA2 (Homo sapiens, UniProt P24941). Put plainly: In vitro kinase TR-FRET assay CDK2/CycA2. Type of assay: biochemical. The note with it: enzyme 3 nM, ATP 27 μM, read-out: CDK2 cyclinA2 activity assay: IC50. How it is done: (§1) In vitro kinase TR-FRET assays: CDK2/CycA2, CDK2/CycE1, CDK1/cyclinB and GSK3β
(§2) The test compounds were prepared as 10 mM stock solution in 100% DMSO. The stock solution was then serially diluted 3-fold in 100% DMSO to 10 concentrations. 200 nL of each diluted compound solution was transferred to 384-well plate in duplicate. To each well, 5 uL of enzyme and ATP mixture solution containing enzyme CDK2/CycA2, CDK2/CycE1, CDK1/cyclinB, or GSK30 (final concentrations 3 nM, 0.6 nM, 0.3 nM, 0.6 nM, respectively) and ATP (final concentrations 27 μM, 82 μM, 56 μM, 7.6 μM, respectively) in the assay buffer (50 mM HEPES, pH7.5, 10 mM MgCl2, 1 mM DTT, 0.01% BSA, 0.01% Triton X-100). For negative control, 5 uL of assay buffer was added instead. The plate was incubated at room temperature for 10 min. 5 uL of peptide solution containing ULight-4E-BP1 peptide (final concentrations 50 nM) in the assay buffer was subsequently added into each well to initiate the reaction. By incubation at room temperature for 1 hour, 10 uL of 2 nM Eu-anti-phospho-4E BP1 antibody was then added for detection. After one hour incubation at room temperature, all samples were subjected to read the TR-FRET signal on Envision with excitation at 340 nm and emission fluorescence at 615 nm and 665 nm. IC50 values were then calculated by plotting dose-response curves and then using the XLfit application in Excel software.

Another assay deals with OVCAR3. Description: Cell proliferation (CyQUANT) OVCAR3. In kind it is cell-based. The note with it: OVCAR3, 7 days, read-out: Anti-proliferation assay: IC50 (nM) [Cell Line: OVCAR3]. How it is done: (§3) Cancer cell lines, namely, OVCAR3, TOV21G were seeded onto 96 well cell culture plates at a density of 2500, 1000 or 3000 cells/well, respectively and cultured overnight. Cells treated with test compounds at 3-fold dose titration for 7 days at maximum final DMSO concentration of 0.01%. The CyQUANT® Cell Proliferation Assay, a highly sensitive fluorescence-based method for quantifying cells and assessing cell proliferation and cytotoxicity was employed, following manufacturer's procedure (ThermnoFisher, Cataloge #C35012). Plates were scanned with a laser-based Acumen Cellistra instrument by TTP LabTech at Ex/Em 480/520 nm. % Inhibition is calculated based on DMSO control wells on the same plate (ie, DMSO wells have 100% growth and 0% growth inhibition).

The target of a further assay is CDK2/CycE1 (Homo sapiens, UniProt P24941). Description: In vitro kinase TR-FRET assay CDK2/CycE1. In kind it is biochemical. The note with it: enzyme 0.6 nM, ATP 82 μM, read-out: CDK2 cyclinE1 activity assay: IC50. How it is done:
as §1, §2

A further assay deals with TOV21G. Put plainly: Cell proliferation (CyQUANT) TOV21G. In kind it is cell-based. The note with it: 7 days, read-out: Anti-proliferation assay: IC50 (nM) [Cell Line: TOV21G]. How it is done: as §3
A further assay addresses CDK1/cyclinB (Homo sapiens, UniProt P06493). Description: In vitro kinase TR-FRET assay CDK1/cyclinB. Type of assay: biochemical. The note with it: enzyme 0.3 nM, ATP 56 μM. How it is done:
as §1, §2

The target of another assay is GSK3β (Homo sapiens, UniProt P49841). Put plainly: In vitro kinase TR-FRET assay GSK3β. The note with it: enzyme 0.6 nM, ATP 7.6 μM. In kind it is biochemical. How it is done: as §1, §2
Chain of GSK3β (P49841 whole entry, species assumed): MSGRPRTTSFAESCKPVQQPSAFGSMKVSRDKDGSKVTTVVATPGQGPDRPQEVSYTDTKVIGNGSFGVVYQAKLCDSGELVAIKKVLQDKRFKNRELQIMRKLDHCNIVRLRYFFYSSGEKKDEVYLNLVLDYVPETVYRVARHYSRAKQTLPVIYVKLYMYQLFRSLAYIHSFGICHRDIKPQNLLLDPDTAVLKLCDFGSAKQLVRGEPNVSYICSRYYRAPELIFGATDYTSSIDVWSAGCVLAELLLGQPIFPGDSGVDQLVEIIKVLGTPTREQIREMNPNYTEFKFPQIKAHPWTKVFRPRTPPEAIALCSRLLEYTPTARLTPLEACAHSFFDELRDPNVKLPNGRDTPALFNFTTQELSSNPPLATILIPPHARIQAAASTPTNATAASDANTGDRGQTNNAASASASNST

Chain of CDK1/cyclinB (P06493 whole entry): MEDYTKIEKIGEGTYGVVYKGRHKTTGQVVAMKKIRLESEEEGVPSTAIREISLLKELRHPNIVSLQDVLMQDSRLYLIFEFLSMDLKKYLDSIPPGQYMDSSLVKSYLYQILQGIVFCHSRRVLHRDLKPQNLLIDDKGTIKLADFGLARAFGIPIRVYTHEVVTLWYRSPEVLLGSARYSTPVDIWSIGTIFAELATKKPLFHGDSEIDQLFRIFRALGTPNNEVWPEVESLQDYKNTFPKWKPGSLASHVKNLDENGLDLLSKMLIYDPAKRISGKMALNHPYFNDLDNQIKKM
Chain of CDK1/cyclinB (P14635 whole entry partner): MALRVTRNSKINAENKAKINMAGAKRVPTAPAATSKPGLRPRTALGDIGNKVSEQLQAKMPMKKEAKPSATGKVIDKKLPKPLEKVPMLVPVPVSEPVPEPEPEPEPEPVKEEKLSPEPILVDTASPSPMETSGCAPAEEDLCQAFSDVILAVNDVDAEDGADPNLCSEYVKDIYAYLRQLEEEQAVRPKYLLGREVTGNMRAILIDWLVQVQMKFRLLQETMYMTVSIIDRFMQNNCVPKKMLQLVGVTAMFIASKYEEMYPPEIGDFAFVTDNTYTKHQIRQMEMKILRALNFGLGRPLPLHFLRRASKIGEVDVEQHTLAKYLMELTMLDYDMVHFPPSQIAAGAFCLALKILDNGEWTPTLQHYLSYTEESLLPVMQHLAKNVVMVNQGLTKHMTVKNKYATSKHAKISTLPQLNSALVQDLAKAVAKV

Consider `CC(C)NC(=O)O[C@@H]1CC[C@H](c2cc(Nc3ccc4c(c3)CCC4=O)n[nH]2)C1` [Example 25, (1R,3S)-3-{5-[(1-oxo-2,3-dihydro-1H-inden-5-yl)amino]-2H-pyrazol-3-yl}cyclopentyl (prop-2-ylamino)methanoate], for which the IC50 at CDK2/CycA2 was under 50 nM; in the assay on OVCAR3 (Homo sapiens, OVCAR-3, 168 h), at most 500 nM; at CDK2/CycE1, under 50 nM; with TOV21G (Homo sapiens, 168 h), at least 1000 nM; at CDK1/cyclinB it was 50 to 500 nM; at GSK3β, 50 to 500 nM.

Consider `CC(C)NC(=O)O[C@H]1CC[C@@H](c2cc(Nc3ccc4c(c3)S(=O)(=O)NC4)n[nH]2)CC1` [Example 37, (1s,4s)-4-(3-((1,1-dioxido-2,3-dihydrobenzo[d]isothiazol-6-yl)amino)-1H-pyrazol-5-yl)cyclohexyl isopropylcarbamate], for which the IC50 on CDK2/CycA2 is under 50 nM; in the assay on OVCAR3 (Homo sapiens, OVCAR-3, 168 h) it was at least 1000 nM; at CDK2/CycE1, under 50 nM; in the assay with TOV21G (Homo sapiens, 168 h) it was at least 1000 nM; at CDK1/cyclinB, 50 to 500 nM; against GSK3β it was over 1000 nM.

For the molecule `CC(C)NC(=O)OC1CCC(c2cc(Nc3ccc4c(c3)CN(C)S4(=O)=O)[nH]n2)C1` (racemic) [Example 23, 3-(5-((2-methyl-1,1-dioxido-2,3-dihydrobenzo[d]isothiazol-5-yl)amino)-1H-pyrazol-3-yl)cyclopentyl isopropylcarbamate], the IC50 on CDK2/CycA2 is under 50 nM; with OVCAR3 (Homo sapiens, OVCAR-3, 168 h), at most 500 nM; on CDK2/CycE1, under 50 nM; in the assay on TOV21G (Homo sapiens, 168 h), at least 1000 nM; against CDK1/cyclinB it was 50 to 500 nM; against GSK3β, 50 to 500 nM.

As to `CC(C)NC(=O)O[C@@H]1CC[C@H](c2cc(Nc3ccc4c(c3)CCC(=O)N4)[nH]n2)C1` [Example 30, (1R,3S)-3-{5-[(2-oxo-1,2,3,4-tetrahydroquinolin-6-yl)amino]-1H-pyrazol-3-yl}cyclopentyl (prop-2-ylamino)methanoate], the IC50 on CDK2/CycA2 was under 50 nM; with OVCAR3 (Homo sapiens, OVCAR-3, 168 h) it was 500 to 1000 nM; on CDK2/CycE1 it was under 50 nM; in the assay with TOV21G (Homo sapiens, 168 h), at least 1000 nM; on CDK1/cyclinB, 50 to 500 nM; on GSK3β it was over 1000 nM.

As for `CC(C)NC(=O)O[C@@H]1CC[C@H](c2cc(Nc3ccc4c(c3)C(C#N)CC4)n[nH]2)C1` (stereo partly drawn) [Example 31, (1R,3S)-3-{5-[(3-cyano-2,3-dihydro-1H-inden-5-yl)amino]-2H-pyrazol-3-yl}cyclopentyl (prop-2-ylamino)methanoate], the IC50 is under 50 nM at CDK2/CycA2; at most 500 nM with OVCAR3 (Homo sapiens, OVCAR-3, 168 h); under 50 nM at CDK2/CycE1; at most 500 nM in the assay with TOV21G (Homo sapiens, 168 h); 50 to 500 nM against CDK1/cyclinB; 50 to 500 nM on GSK3β.

With `COC1CS(=O)(=O)c2ccc(Nc3cc([C@H]4CC[C@@H](OC(=O)NC(C)C)C4)n[nH]3)cc21` (stereo partly drawn) [Example 15, (1R,3S)-3-{5-[(3-methoxy-1,1-dioxo-2,3-dihydro-1λ^6-benzothiophen-5-yl)amino]-2H-pyrazol-3-yl}cyclopentyl (prop-2-ylamino)methanoate], the IC50 on CDK2/CycA2 was under 50 nM; in the assay with OVCAR3 (Homo sapiens, OVCAR-3, 168 h), at most 500 nM; at CDK2/CycE1, under 50 nM; in the assay on TOV21G (Homo sapiens, 168 h), at least 1000 nM; at CDK1/cyclinB it was 50 to 500 nM; against GSK3β, 50 to 500 nM.

As for `CC(C)NC(=O)O[C@@H]1CC[C@H](c2cc(Nc3ccc4c(c3)oc(=O)n4C)n[nH]2)C1` [Example 34, (1R,3S)-3-{5-[(3-methyl-2-oxobenzo[d][1,3]oxazol-6-yl)amino]-2H-pyrazol-3-yl}cyclopentyl (prop-2-ylamino)methanoate], the IC50 at CDK2/CycA2 was under 50 nM; with OVCAR3 (Homo sapiens, OVCAR-3, 168 h), 500 to 1000 nM; at CDK2/CycE1, under 50 nM; with TOV21G (Homo sapiens, 168 h) it was at least 1000 nM; against CDK1/cyclinB, 50 to 500 nM; against GSK3β, 500 to 1000 nM.

Consider `CC(C)NC(=O)O[C@H]1CC[C@@H](c2cc(Nc3cccc4c3CCS4(=O)=O)n[nH]2)CC1` [Example 49, (1s,4s)-4-(3-((1,1-dioxido-2,3-dihydrobenzo[b]thiophen-4-yl)amino)-1H-pyrazol-5-yl)cyclohexyl isopropylcarbamate], for which the IC50 at CDK2/CycA2 was under 50 nM; with OVCAR3 (Homo sapiens, OVCAR-3, 168 h) it was at most 500 nM; at CDK2/CycE1, under 50 nM; in the assay on TOV21G (Homo sapiens, 168 h), 500 to 1000 nM; on CDK1/cyclinB it was 50 to 500 nM; against GSK3β it was over 1000 nM.

For the molecule `CC(C)NC(=O)O[C@@H]1CC[C@H](c2cc(Nc3ccc(F)c4c3CN(C)S4(=O)=O)n[nH]2)C1` [Example 67, (1R,3S)-3-{5-[(7-fluoro-2-methyl-1,1-dioxo-2,3-dihydro-1λ^6-benzo[2,1-d][1,2]thiazol-4-yl)amino]-2H-pyrazol-3-yl}cyclopentyl (prop-2-ylamino)methanoate], the IC50 at CDK2/CycA2 was under 50 nM; with OVCAR3 (Homo sapiens, OVCAR-3, 168 h) it was at most 500 nM; on CDK2/CycE1 it was under 50 nM; in the assay on TOV21G (Homo sapiens, 168 h), at least 1000 nM; at CDK1/cyclinB it was 50 to 500 nM; on GSK3β, over 1000 nM.

For `CC(C)NC(=O)O[C@@H]1CC[C@H](c2cc(Nc3ccc(Cl)c4c3CCCS4(=O)=O)n[nH]2)C1` [Example 58, (1R,3S)-3-(3-((8-chloro-1,1-dioxidothiochroman-5-yl)amino)-1H-pyrazol-5-yl)cyclopentyl isopropylcarbamate], the IC50 is under 50 nM at CDK2/CycA2; at most 500 nM in the assay with OVCAR3 (Homo sapiens, OVCAR-3, 168 h); under 50 nM at CDK2/CycE1; at least 1000 nM in the assay with TOV21G (Homo sapiens, 168 h); 50 to 500 nM against CDK1/cyclinB; 500 to 1000 nM against GSK3β.

Turning to `CC(C)NC(=O)O[C@H]1CC[C@@H](c2cc(Nc3ccc4c(c3)S(=O)(=O)CC4)n[nH]2)CC1` [Example 27, (1s,4s)-4-{5-[(1,1-dioxo-2,3-dihydro-1λ^6-benzo[b]thiophen-6-yl)amino]-2H-pyrazol-3-yl}cyclohexyl (prop-2-ylamino)methanoate], the IC50 on CDK2/CycA2 was under 50 nM; with OVCAR3 (Homo sapiens, OVCAR-3, 168 h), at least 1000 nM; at CDK2/CycE1 it was under 50 nM; with TOV21G (Homo sapiens, 168 h), at least 1000 nM; on CDK1/cyclinB it was 50 to 500 nM; on GSK3β, over 1000 nM.

In the case of `CC(C)NC(=O)O[C@H]1CC[C@@H](c2cc(Nc3ccc4c(c3)CNS4(=O)=O)n[nH]2)CC1` [Example 7, (1s,4s)-4-{3-[(1,1-dioxo-2,3-dihydro-1λ^6,2-benzothiazol-5-yl)amino]-1H-pyrazol-5-yl}cyclohexyl N-(propan-2-yl)carbamate], the IC50 at CDK2/CycA2 is under 50 nM; with OVCAR3 it was at most 500 nM; on CDK2/CycE1 it was under 50 nM; in the assay on TOV21G, at least 1000 nM; against CDK1/cyclinB it was 50 to 500 nM; on GSK3β, over 1000 nM.

On to `CC(C)NC(=O)O[C@@H]1CC[C@H](c2cc(Nc3ccc4c(n3)CCS4(=O)=O)n[nH]2)C1` [Example 55, (1R,3S)-3-(3-((1,1-dioxido-2,3-dihydrothieno[3,2-b]pyridin-5-yl)amino)-1H-pyrazol-5-yl)cyclopentyl isopropylcarbamate], for which the IC50 is under 50 nM on CDK2/CycA2; at most 500 nM with OVCAR3 (Homo sapiens, OVCAR-3, 168 h); under 50 nM at CDK2/CycE1; at least 1000 nM in the assay on TOV21G (Homo sapiens, 168 h); 50 to 500 nM against CDK1/cyclinB; 50 to 500 nM against GSK3β.

With `CC(C)NC(=O)O[C@@H]1CC[C@H](c2cc(Nc3ccc(Cl)c4c3CCS4(=O)=O)n[nH]2)C1` [Example 64, (1R,3S)-3-(3-((7-chloro-1,1-dioxido-2,3-dihydrobenzo[b]thiophen-4-yl)amino)-1H-pyrazol-5-yl)cyclopentyl isopropylcarbamate], the IC50 was under 50 nM at CDK2/CycA2; at most 500 nM with OVCAR3 (Homo sapiens, OVCAR-3, 168 h); under 50 nM at CDK2/CycE1; at least 1000 nM in the assay with TOV21G (Homo sapiens, 168 h); 50 to 500 nM against CDK1/cyclinB; 50 to 500 nM at GSK3β.

For the origin of these results see patent publication US20240246950A1, “Anilino-Pyrazole Derivatives, Compositions and Methods Thereof” (Ensem Therapeutics, priority 2022, published 2024).
